Measured values reported in a compilation of properties of binary mixtures (doi:10.1016/j.jct.2020.106330).

Assay: xn = mol fraction of the nth substance listed
Conditions: 101.3 kPa

CN1CCCC1=O + CCCC[n+]1ccn(C)c1.F[P-](F)(F)(F)(F)F
x2 = 0
Conditions	speed of sound [m/s]
308.15 K	1505
313.15 K	1485.7
318.15 K	1466.7
323.15 K	1447.8

CCCC[n+]1ccn(C)c1.F[P-](F)(F)(F)(F)F + CN1CCCC1=O
speed of sound [m/s]
Conditions	303.15 K	308.15 K	313.15 K	318.15 K	323.15 K
x1 = 0.0513	1522.2	1503.9	1485.8	–	1450.1
x1 = 0.1028	1516.1	1498.8	1481.6	1464.5	1447.6
x1 = 0.1422	1510	1493.2	1476.6	1460.1	1443.8
x1 = 0.1894	–	1486	1470	1454.1	1438.4
x1 = 0.2988	–	1470.9	1456	1441.3	1426.7
x1 = 0.499	1460.7	1447.2	1433.9	–	1407.6
x1 = 0.591	–	1438.8	1425.9	–	1400.6
x1 = 0.6991	–	–	1419.4	1407.1	–
x1 = 0.812	1437.9	1425.8	1413.8	1402	1390.3
x1 = 0.8415	1436.6	1424.5	1412.6	1400.9	1389.3
x1 = 0.8812	1434.9	–	1411.2	1399.6	1388.1
x1 = 0.9423	1432.9	1421.1	–	1398	–
x1 = 1	–	1419.8	1408.2	1396.8	1385.6
